Data taken from US11040962B2, “Pesticidally active pyrazole derivatives” (SYNGENTA PARTICIPATIONS AG, priority 2017, dated 2021).

Legend:
Format in all cases: in vivo
Spodoptera littoralis = Spodoptera littoralis (Egyptian cotton leaf worm) cotton leaf disc spray test; conditions: foliar, 72 h, application rate 200 ppm, L1 larvae, 3 days after infestation, vs untreated, read-out: control (at least one of mortality, anti-feedant effect, growth inhibition)
Method: Spodoptera littoralis (Egyptian Cotton Leaf Worm)
Cotton leaf discs were placed on agar in 24-well microtiter plates and sprayed with aqueous test solutions prepared from 10′000 ppm DMSO stock solutions. After drying the leaf discs were infested with five L1 larvae. The samples were assessed for mortality, anti-feedant effect, and growth inhibition in comparison to untreated samples 3 days after infestation. Control of Spodoptera littoralis by a test sample is when at least one of mortality, anti-feedant effect, and growth inhibition is higher than the untreated sample.

Plutella xylostella = Plutella xylostella (diamond back moth) artificial diet test; conditions: 120 h, application rate 200 ppm, L2 larvae, 5 days after infestation, vs untreated, read-out: effect in at least one of the two categories (mortality or growth inhibition)
Method: Plutella xylostella (Diamond Back Moth):
24-well microtiter plates with artificial diet were treated with aqueous test solutions prepared from 10′000 ppm DMSO stock solutions by pipetting. After drying, the plates were infested with L2 larvae (10 to 15 per well). The samples were assessed for mortality and growth inhibition in comparison to untreated samples 5 days after infestation. The following compounds gave an effect of at least 80% in at least one of the two categories (mortality or growth inhibition) at an application rate of 200 ppm: 1, 2, 3, 4, 7, 8, 9, 10, 11, 12, 13, 14, 15, 16, 17, 18, 19, 20, 21, 22, 23, 24, 26, 27, 28 and 29.

Diabrotica balteata = Diabrotica balteata (corn root worm) maize sprout spray test; conditions: 96 h, application rate 200 ppm, L2 larvae, 4 days after infestation, vs untreated, read-out: effect in at least one of the two categories (mortality or growth inhibition)
Method: Diabrotica balteata, (Corn Root Worm)
Maize sprouts, placed on an agar layer in 24-well microtiter plates were treated with aqueous test solutions prepared from 10′000 ppm DMSO stock solutions by spraying. After drying, the plates were infested with L2 larvae (6 to 10 per well). The samples were assessed for mortality and growth inhibition in comparison to untreated samples 4 days after infestation. The following compounds gave an effect of at least 80% in at least one of the two categories (mortality or growth inhibition) at an application rate of 200 ppm: 1, 2, 3, 4, 7, 8, 9, 11, 12, 13, 14, 15, 16, 17, 18, 19, 20, 21, 27, 28 and 29.

Thrips tabaci = Thrips tabaci (onion thrips) sunflower leaf disc spray test; conditions: foliar, 144 h, application rate 200 ppm, population of mixed ages, 6 days after infestation
Method: Thrips tabaci (Onion Thrips):
Sunflower leaf discs were placed on agar in 24-well microtiter plates and sprayed with aqueous test solutions prepared from 10′000 ppm DMSO stock solutions. After drying the leaf discs were infested with a Thrips population of mixed ages. The samples were assessed for mortality 6 days after infestation.

Tetranychus urticae = Tetranychus urticae (two-spotted spider mite) bean leaf disc spray test; conditions: foliar, 192 h, application rate 200 ppm, 8 days after infestation, read-out: mortality on mixed population (mobile stages)
Method: Tetranychus urticae (Two-Spotted Spider Mite):
Bean leaf discs on agar in 24-well microtiter plates were sprayed with aqueous test solutions prepared from 10′000 ppm DMSO stock solutions. After drying the leaf discs were infested with a mite population of mixed ages. The samples were assessed for mortality on mixed population (mobile stages) 8 days after infestation.

Euschistus heros = Euschistus heros (neotropical brown stink bug) soybean leaf spray test; conditions: 120 h, application rate 200 ppm, N2 nymphs, 5 days after infestation, vs untreated, read-out: effect in at least one of the two categories (mortality or growth inhibition)
Method: Euschistus heros (Neotropical Brown Stink Bug)
Soybean leaves on agar in 24-well microtiter plates were sprayed with aqueous test solutions prepared from 10′000 ppm DMSO stock solutions. After drying the leaves were infested with N2 nymphs. The samples were assessed for mortality and growth inhibition in comparison to untreated samples 5 days after infestation. The following compounds gave an effect of at least 80% in at least one of the two categories (mortality or growth inhibition) at an application rate of 200 ppm: 1, 2, 3, 7, 8, 9, 12, 13, 14, 15, 17, 18, 21, 25, 26, 27, 28 and 29.

CN(C(=O)c1cc(-c2cc(-c3c(C(F)(F)F)c(C(F)(F)C(F)(F)F)nn3C)cs2)sc1C#N)C1CC1 [Compound 28, 2-cyano-N-cyclopropyl-N-methyl-5-[4-[2-methyl-5-(1,1,2,2,2-pentafluoroethyl)-4-(trifluoromethyl)pyrazol-3-yl]-2-thienyl]thiophene-3-carboxamide]
≥ 80%: percent control (mortality, anti-feedant effect or growth inhibition) at 200 ppm (Spodoptera littoralis) | percent effect (mortality or growth inhibition) at 200 ppm (Plutella xylostella) | percent effect (mortality or growth inhibition) at 200 ppm (Diabrotica balteata) | mortality at 200 ppm (Thrips tabaci) | mortality at 200 ppm (Tetranychus urticae) | percent effect (mortality or growth inhibition) at 200 ppm (Euschistus heros)

CCN(C(=O)c1cc(-c2cn(-c3c(C(F)(F)F)c(C(F)(F)C(F)(F)F)nn3C)nn2)sc1C#N)C1CC1 [Compound 3, 2-cyano-N-cyclopropyl-N-ethyl-5-[1-[2-methyl-5-(1,1,2,2,2-pentafluoroethyl)-4-(trifluoromethyl)pyrazol-3-yl]triazol-4-yl]thiophene-3-carboxamide]
≥ 80%: percent control (mortality, anti-feedant effect or growth inhibition) at 200 ppm (Spodoptera littoralis) | percent effect (mortality or growth inhibition) at 200 ppm (Plutella xylostella) | percent effect (mortality or growth inhibition) at 200 ppm (Diabrotica balteata) | mortality at 200 ppm (Thrips tabaci) | mortality at 200 ppm (Tetranychus urticae) | percent effect (mortality or growth inhibition) at 200 ppm (Euschistus heros)

Cn1nc(C(F)(F)C(F)(F)F)c(C(F)(F)F)c1-c1csc(-c2cc(C(=O)NC3CC3)c(C#N)s2)c1 [Compound 27, 2-cyano-N-cyclopropyl-5-[4-[2-methyl-5-(1,1,2,2,2-pentafluoroethyl)-4-(trifluoromethyl)pyrazol-3-yl]-2-thienyl]thiophene-3-carboxamide]
≥ 80%: percent control (mortality, anti-feedant effect or growth inhibition) at 200 ppm (Spodoptera littoralis) | percent effect (mortality or growth inhibition) at 200 ppm (Plutella xylostella) | percent effect (mortality or growth inhibition) at 200 ppm (Diabrotica balteata) | mortality at 200 ppm (Thrips tabaci) | mortality at 200 ppm (Tetranychus urticae) | percent effect (mortality or growth inhibition) at 200 ppm (Euschistus heros)

Cn1nc(C(F)(F)C(F)(F)F)c(C(F)(F)F)c1-n1cc(-c2cc(C(=O)NC3CC3)c(Cl)s2)nn1 [Compound 7, 2-chloro-N-cyclopropyl-5-[1-[2-methyl-5-(1,1,2,2,2-pentafluoroethyl)-4-(trifluoromethyl)pyrazol-3-yl]triazol-4-yl]thiophene-3-carboxamide]
≥ 80%: percent control (mortality, anti-feedant effect or growth inhibition) at 200 ppm (Spodoptera littoralis) | percent effect (mortality or growth inhibition) at 200 ppm (Plutella xylostella) | percent effect (mortality or growth inhibition) at 200 ppm (Diabrotica balteata) | mortality at 200 ppm (Thrips tabaci) | mortality at 200 ppm (Tetranychus urticae) | percent effect (mortality or growth inhibition) at 200 ppm (Euschistus heros)

CN(C(=O)c1cc(-c2cc(-c3c(C(F)(F)F)c(C(F)(F)C(F)(F)F)nn3C)no2)sc1C#N)C1CC1 [Compound 14, 2-cyano-N-cyclopropyl-N-methyl-5-[3-[2-methyl-5-(1,1,2,2,2-pentafluoroethyl)-4-(trifluoromethyl)pyrazol-3-yl]isoxazol-5-yl]thiophene-3-carboxamide]
≥ 80%: percent control (mortality, anti-feedant effect or growth inhibition) at 200 ppm (Spodoptera littoralis) | percent effect (mortality or growth inhibition) at 200 ppm (Plutella xylostella) | percent effect (mortality or growth inhibition) at 200 ppm (Diabrotica balteata) | mortality at 200 ppm (Thrips tabaci) | mortality at 200 ppm (Tetranychus urticae) | percent effect (mortality or growth inhibition) at 200 ppm (Euschistus heros)

Cn1nc(C(F)(F)C(F)(F)F)c(C(F)(F)F)c1-n1cc(-c2cc(C(=O)NC3CC3)c(C#N)s2)nn1 [Compound 1, 2-cyano-N-cyclopropyl-5-[1-[2-methyl-5-(1,1,2,2,2-pentafluoroethyl)-4-(trifluoromethyl)pyrazol-3-yl]triazol-4-yl]thiophene-3-carboxamide]
≥ 80%: percent control (mortality, anti-feedant effect or growth inhibition) at 200 ppm (Spodoptera littoralis) | percent effect (mortality or growth inhibition) at 200 ppm (Plutella xylostella) | percent effect (mortality or growth inhibition) at 200 ppm (Diabrotica balteata) | mortality at 200 ppm (Thrips tabaci) | mortality at 200 ppm (Tetranychus urticae) | percent effect (mortality or growth inhibition) at 200 ppm (Euschistus heros)

CCN(C(=O)c1cc(-c2cc(-c3c(C(F)(F)F)c(C(F)(F)C(F)(F)F)nn3C)cs2)sc1C#N)C1CC1 [Compound 29, 2-cyano-N-cyclopropyl-N-ethyl-5-[4-[2-methyl-5-(1,1,2,2,2-pentafluoroethyl)-4-(trifluoromethyl)pyrazol-3-yl]-2-thienyl]thiophene-3-carboxamide]
≥ 80%: percent control (mortality, anti-feedant effect or growth inhibition) at 200 ppm (Spodoptera littoralis) | percent effect (mortality or growth inhibition) at 200 ppm (Plutella xylostella) | percent effect (mortality or growth inhibition) at 200 ppm (Diabrotica balteata) | mortality at 200 ppm (Thrips tabaci) | mortality at 200 ppm (Tetranychus urticae) | percent effect (mortality or growth inhibition) at 200 ppm (Euschistus heros)

CCN(C(=O)c1cc(-c2cc(-c3c(C(F)(F)F)c(C(F)(F)C(F)(F)F)nn3C)no2)sc1C#N)C1CC1 [Compound 15, 2-cyano-N-cyclopropyl-N-ethyl-5-[3-[2-methyl-5-(1,1,2,2,2-pentafluoroethyl)-4-(trifluoromethyl)pyrazol-3-yl]isoxazol-5-yl]thiophene-3-carboxamide]
≥ 80%: percent control (mortality, anti-feedant effect or growth inhibition) at 200 ppm (Spodoptera littoralis) | percent effect (mortality or growth inhibition) at 200 ppm (Plutella xylostella) | percent effect (mortality or growth inhibition) at 200 ppm (Diabrotica balteata) | mortality at 200 ppm (Thrips tabaci) | mortality at 200 ppm (Tetranychus urticae) | percent effect (mortality or growth inhibition) at 200 ppm (Euschistus heros)

CN(C(=O)c1cc(-c2cc(-c3c(C(F)(F)F)c(C(F)(F)C(F)(F)F)nn3C)no2)sc1C#N)C1(C#N)CC1 [Compound 17, 2-cyano-N-(1-cyanocyclopropyl)-N-methyl-5-[3-[2-methyl-5-(1,1,2,2,2-pentafluoroethyl)-4-(trifluoromethyl)pyrazol-3-yl]isoxazol-5-yl]thiophene-3-carboxamide]
≥ 80%: percent control (mortality, anti-feedant effect or growth inhibition) at 200 ppm (Spodoptera littoralis) | percent effect (mortality or growth inhibition) at 200 ppm (Plutella xylostella) | percent effect (mortality or growth inhibition) at 200 ppm (Diabrotica balteata) | mortality at 200 ppm (Thrips tabaci) | mortality at 200 ppm (Tetranychus urticae) | percent effect (mortality or growth inhibition) at 200 ppm (Euschistus heros)

CN(C(=O)c1cc(-c2cn(-c3c(C(F)(F)F)c(C(F)(F)C(F)(F)F)nn3C)nn2)sc1C#N)C1CC1 [Compound 2, 2-cyano-N-cyclopropyl-N-methyl-5-[1-[2-methyl-5-(1,1,2,2,2-pentafluoroethyl)-4-(trifluoromethyl)pyrazol-3-yl]triazol-4-yl]thiophene-3-carboxamide]
≥ 80%: percent control (mortality, anti-feedant effect or growth inhibition) at 200 ppm (Spodoptera littoralis) | percent effect (mortality or growth inhibition) at 200 ppm (Plutella xylostella) | percent effect (mortality or growth inhibition) at 200 ppm (Diabrotica balteata) | mortality at 200 ppm (Thrips tabaci) | mortality at 200 ppm (Tetranychus urticae) | percent effect (mortality or growth inhibition) at 200 ppm (Euschistus heros)
